Data: ChEMBL document CHEMBL6103654, “Design, Biological Characterization, and Discovery of Capromorelin Derivatives as Oral Growth Hormone Secretagogue Receptor Type 1a Agonist for the Treatment of Growth Hormone Deficiency” (J Med Chem, 2025)
pEC50: −log10 of the molar value. The source made the active and inactive calls. No cut-off for these calls is given here.

Key:
[1] = Agonist activity at human GHSR expressed in CHO cells incubated for 60 min by FLIPR assay; type: cell-based; details: 1 h
[2] = tested on: CHO; assay: Agonist activity at dog GHSR expressed in CHO cells at maximum concentration incubated for 60 min by FLIPR assay relative to control; type: cell-based; details: Canis lupus familiaris, filed as agonist
[3] = Elimination half life in male Sprague-Dawley rat at 1 mg/kg, iv administered as single dose measured after 4 hrs; type: ADME, organism-based; details: in vivo, read-out: beta t1/2 (converted)
[4] = Elimination half life in male Sprague-Dawley rat at 2 mg/kg, po administered as single dose measured after 4 hrs; type: ADME, organism-based; details: in vivo, read-out: beta t1/2 (converted)
[5] = tested on: Rattus norvegicus; assay: Induction of growth hormone level in Juvenile Sprague-Dawley rat blood at 0.2 mg/kg, po administered as single dose measured after 20 mins by ELISA method (reference value: 29.1+/-8.6 ng/mL); type: functional
[6] = tested on: Rattus norvegicus; assay: Induction of growth hormone level in Juvenile Sprague-Dawley rat blood at 0.2 mg/kg, po administered as single dose measured after 1 hr by ELISA method (reference value: 45.2+/-12.5 ng/mL); type: functional
[7] = tested on: Rattus norvegicus; assay: Induction of growth hormone level in Juvenile Sprague-Dawley rat blood at 0.2 mg/kg, po administered as single dose measured after 2 hrs by ELISA method (reference value: 26.5+/-7.3 ng/mL); type: functional
[8] = tested on: Rattus norvegicus; assay: Induction of growth hormone level in Juvenile Sprague-Dawley rat blood at 0.5 mg/kg, po administered as single dose measured immediately by ELISA method (reference value: 28.5+/-8.7 ng/mL); type: functional
[9] = tested on: Rattus norvegicus; assay: Induction of growth hormone level in Juvenile Sprague-Dawley rat blood at 0.5 mg/kg, po administered as single dose measured after 10 mins by ELISA method (reference value: 23.2+/-5.6 ng/mL); type: functional
[10] = tested on: Rattus norvegicus; assay: Induction of growth hormone level in Juvenile Sprague-Dawley rat blood at 0.5 mg/kg, po administered as single dose measured after 4 hrs by ELISA method (reference value: 32.5+/-4.5 ng/mL); type: functional
[11] = tested on: Rattus norvegicus; assay: Induction of growth hormone level in adult Sprague-Dawley rat blood at 0.1 mg/kg, po administered as single dose measured immediately by ELISA method (reference value: 12.6+/-4.4 ng/mL); type: functional
[12] = tested on: Rattus norvegicus; assay: Induction of growth hormone level in adult Sprague-Dawley rat blood at 0.1 mg/kg, po administered as single dose measured after 40 mins by ELISA method (reference value: 14.4+/-6.9 ng/mL); type: functional
[13] = tested on: Rattus norvegicus; assay: Induction of growth hormone level in adult Sprague-Dawley rat blood by measuring AUC(0 to 40 mins) at 0.1 mg/kg, po administered as single dose by ELISA method (reference value: 7.0+/-1.7 ng/mL); type: functional, organism-based
[14] = tested on: Rattus norvegicus; assay: Induction of growth hormone level in adult Sprague-Dawley rat blood at 0.2 mg/kg, po administered as single dose measured immediately by ELISA method (reference value: 12.6+/-4.4 ng/mL); type: functional
[15] = tested on: Rattus norvegicus; assay: Induction of growth hormone level in adult Sprague-Dawley rat blood at 0.5 mg/kg, po administered as single dose measured immediately by ELISA method (reference value: 12.6+/-4.4 ng/mL); type: functional
[16] = tested on: Rattus norvegicus; assay: Induction of growth hormone level in 4 week-old male Sprague-Dawley rat assessed as increase in body length at 2.5 mg/kg, po measured after 10 days; type: functional, organism-based; details: time 10.0 day
[17] = tested on: Rattus norvegicus; assay: Induction of growth hormone level in 6 week-old female Sprague-Dawley rat assessed as increase in body weight at 2.5 mg/kg, po measured after 10 days; type: functional, organism-based; details: time 10.0 day
[18] = species on record: Rattus norvegicus; assay: Induction of growth hormone level in 6 week-old Sprague-Dawley rat assessed as increase in body length measured after 10 days; type: functional, organism-based; details: time 10.0 day
[19] = Volume of distribution in male monkey at 0.5 mg/kg, iv administered as single dose measured after 4 hrs; type: ADME, organism-based, Macaca mulatta; details: rhesus monkey, in vivo
[20] = Half life in male monkey at 2 mg/kg, po administered as single dose measured after 4 hrs; type: ADME, organism-based, Macaca mulatta; details: rhesus monkey, in vivo
[21] = Tmax in male monkey at 2 mg/kg, po administered as single dose measured after 4 hrs; type: ADME, organism-based, Macaca mulatta; details: rhesus monkey, in vivo
[22] = Oral bioavailability in male monkey at 2 mg/kg administered as single dose measured after 4 hrs; type: ADME, organism-based, Macaca mulatta; details: rhesus monkey, in vivo
[23] = Clearance in male dog plasma at 0.5 mg/kg, iv administered as single dose measured after 4 hrs; type: ADME, organism-based, Canis lupus familiaris
[24] = Tmax in male dog at 2 mg/kg, po administered as single dose measured after 4 hrs; type: ADME, organism-based, Canis lupus familiaris; details: in vivo
[25] = Half life in male mouse at 1 mg/kg, iv administered as single dose measured after 4 hrs; type: ADME, organism-based; details: in vivo
[26] = Clearance in male mouse plasma at 1 mg/kg, iv administered as single dose measured after 4 hrs; type: ADME, organism-based
[27] = Cmax in male mouse at 2 mg/kg, po administered as single dose measured after 4 hrs; type: ADME, organism-based; details: in vivo
[28] = AUC in male mouse at 2 mg/kg, po administered as single dose measured after 4 hrs; type: ADME, organism-based; details: in vivo
[29] = Metabolic stability in monkey liver microsome assessed as half life at 1 uM measured upto 60 mins in presence of NADPH by LC-MS/MS analysis; type: ADME, Macaca mulatta; details: rhesus monkey, liver microsomes
[30] = Metabolic stability in monkey liver microsome assessed as intrinsic clearance at 1 uM measured upto 60 mins in presence of NADPH by LC-MS/MS analysis; type: ADME, Macaca mulatta; details: rhesus monkey, liver microsomes, read-out: CLH
[31] = Metabolic stability in dog liver microsome assessed as intrinsic clearance at 1 uM measured upto 60 mins in presence of NADPH by LC-MS/MS analysis; type: ADME, Canis lupus familiaris; details: liver microsomes, read-out: CLH
[32] = Metabolic stability in dog liver microsome assessed as hepatic clearance at 1 uM measured upto 60 mins in presence of NADPH by LC-MS/MS analysis; type: ADME, Canis lupus familiaris; details: liver microsomes, read-out: CLH
[33] = Metabolic stability in rat liver microsome assessed as hepatic clearance at 1 uM measured upto 60 mins in presence of NADPH by LC-MS/MS analysis; type: ADME; details: liver microsomes, read-out: CLH
[34] = Plasma protein binding in mouse assessed as unbound fraction measured after 6 hrs by dialysis method; type: ADME, cell-free
[35] = Genotoxicity in Salmonella typhimurium TA98 by Ames test; type: toxicity; details: salmonella enterica subsp. enterica serovar typhimurium
[36] = Genotoxicity in Salmonella typhimurium TA100 by Ames test; type: toxicity; details: salmonella enterica subsp. enterica serovar typhimurium
[37] = Genotoxicity in Salmonella typhimurium TA1535 by Ames test; type: toxicity; details: salmonella enterica subsp. enterica serovar typhimurium
[38] = Toxicity in Sprague-Dawley rat assessed as effect on red pulp with a network of sinuses filled with erythrocytes at 10 to 100 mg/kg, po administered once daily for 14 days by H&E staining based analysis; type: organism-based; details: in vivo, 336 h, dose 10-100 mg/kg, time 14 day
[39] = Toxicity in Sprague-Dawley rat assessed as effect on hepatic cords at 10 to 100 mg/kg, po administered once daily for 14 days; type: organism-based; details: in vivo, 336 h, dose 10-100 mg/kg, time 14 day
[40] = tested on: Rattus norvegicus; assay: In vivo agonist activity at GSHR in Sprague-Dawley rat assessed as increase in body weight at 10 to 100 mg/kg, po administered once daily for 14 days; type: functional, organism-based; details: dose 10-100 mg/kg, time 14.0 day

pEC50 [1]: 9.26 | half-life [3]: 1.07 h | half-life [4]: 2.76 h | Vd [19]: 2.36 L/kg | half-life [20]: 1.02 h | Tmax [21]: 1.33 h | F [22]: 15.88% | clearance [23]: 35 mL/min/kg | Tmax [24]: 0.42 h | half-life [25]: 0.27 h | clearance [26]: 124 mL/min/kg | Cmax [27]: 125 ng/mL | AUC at 4 h [28]: 93.1 ng·h/mL | half-life at 1 µM [29]: 3.1 min | microsomal CLint at 1 µM [30]: 451 µL/min/mg | microsomal CLint at 1 µM [31]: 134 µL/min/mg | CLint scaled at 1 µM [32]: 237 mL/min/kg | CLint scaled at 1 µM [33]: 342 mL/min/kg | fraction unbound at 6 h [34]: 0.621
Compound: CC(C)(N)C(=O)N[C@H](COCc1ccccc1)C(=O)N1CCC2=NN(C3CC3)C(=O)[C@]2(Cc2ccccc2)C1
Activity [2]: 124% | Activity [5]: 217.8 ng/mL | Activity [6]: 45.9 ng/mL | Activity [7]: 32.3 ng/mL | Activity [8]: 42.8 ng/mL | Activity [9]: 230.9 ng/mL | Activity [10]: 56.7 ng/mL | Activity [11]: 21.2 ng/mL | Activity [12]: 27.6 ng/mL | AUC [13]: 61 ng·h/mL | Activity [14]: 22 ng/mL | Activity [15]: 14 ng/mL | Activity [16]: Active | Activity [17]: Active | Activity [18]: Dose-dependent-effect | Activity [35]: Non-toxic | Activity [36]: Non-toxic | Activity [37]: Non-toxic | Activity [38]: Non-toxic | Activity [39]: Non-toxic | Activity [40]: Active
